From patent publication US5589461A, “Active substance for inhibiting the proliferation rate of hepatocytes” (priority 1994, dated 1996)
Where “and” joins values, the source holds several entries; their conditions need not be identical. Equal entries are not always repeated. Where a SMILES comes first, the peptide text is derived from it.

Legend:
hepatocytes = experiment: proliferation rate of hepatocytes in rats after 66% partial hepatectomy (3H-thymidine, specific radioactivity of DNA); format: in vivo, rat
From the text: To carry out these experiments, young female Wistar rats weighing 100 g were used, which had been provided from the SPF animal house department of the Max-Planck-Instut fur Biochemie in D-82152 Martinstied.
Seven groups of rats were subjected to 66% partial hepatectomy. In each experimental group 4 animals were used. In a slight modification of the Higgins and Anderson method (Higgins, G. M., Anderson, R. M., Archives of Pathology 12 (1931), p. 186-202), the rats were submitted to partial hepatectomy between 13.00 h and 13.30 h. The tetrapeptide SDKP synthesized in the conventional way and dissolved in 1 ml of 0.9% NaCl was injected intraperitoneally (i.p.) to three groups immediately after operation and to three other groups 10 hrs after the operation, each three with different quantities (500 μg, 1 μg). The seventh group served as a control group, receiving the solvent only. […] The livers were conserved at -20° C. up to the time of determining the specific radioactivity of the DNA in the hepatocyte nuclei.
This specific radioactivity was used as a marker for the proliferation behaviour of the hepatocytes: Thymidine is incorporated only in DNA (not e.g. in RNA), and significant DNA synthesis is effected only during cell proliferation. The specific radioactivity of the DNA (in dpm/μg DNA) is the quotient of the result of radioactivity measurement of a sample (in dpm, i.e. disintegrations per minute) by the DNA content of that sample (in μg). The proliferation promoting or proliferation inhibiting character of the peptide (depending on the administered dose and the time of administration after partial hepatectomy) was determined by establishing the percentage of the specific radioactivity of the DNA in the hepatocyte nuclei of the experimental group as compared with the specific radioactivity of the control group associated with each experiment.
For determination of the specific radioactivity, the DNA was first extracted from the liver. […]
For measurement of the radioactivity, scintillation counting liquid was added to 1 ml of the extract, and ^3 H measurement was effected. […]

[1] = test system: YOSHIDA liver tumor cell ascites AH 130; experiment: development of the YOSHIDA ascites AH 130 in rat; format: in vivo
Description: Two groups, each comprising five female Wistar rats weighing approx. 100 grams, were inoculated with the YOSHIDA liver tumor cell ascites AH 130 of a rat having been infected 8 days ago. 0.5 ml of ascites fluid were injected intraperitoneally (i.p.) to each animal. Starting on the seventh day after ascites inoculation, 1 μg of SDK (dissolved in 1 ml of 0.9% NaCl solution) was injected i.p. to each animal of one group (five rats) during four days. Then the animals of both groups were killed. The following parameters were determined:
(a) Weight or respectively volume of ascites fluid. The killed rats were weighed, the ascites was sucked off as completely as possible, and the animals were weighed again. The difference resulting from these two ponderations corresponded to the ascites volume (1 g ≈1 ml).
(b) Number of tumor cells in the ascites 2 ml of the sucked-off ascites for each animal were placed into an EDTA tube, to prevent cells from agglomerating. With an aliquot thereof, the number of tumor cells was measured in a Coulter counter and extrapolated for the total volume.
The third and fourth columns give the respective results of twin measurements.

Hep G2 cells = experiment: human tumor cells in tissue culture (cell growth, 3H-thymidine incorporation); format: cell-based
Description: The effect of the tripeptide on human tumor cells was tested in an in-vitro model. For this purpose, Hep G2 cells were used. This cell line is a human hepatom from the tumor cell bank of "Deutsches Krebsforschungszentrum Heidelberg ", which is cultivated as a monolayer in 90% DMEM (Dulbecco's modified Eagle's medium)/10% FKS (fetal calf serum) in a subculture interval of three to five days. Sixty dishes of each of the experimental and control cultures were used. A solution of 20 mg of SDK in 0.2 ml of 0.9% NaCl served as a stock solution which was diluted with a physiological sodium chloride solution as required for each case.
One day after transferring the cells, 0.2 ml of tripeptide SDK dissolved in 0.9% NaCl (concentration: 1 μg/ml) were added to each 10 ml of culture medium. The control dishes received 0.2 ml of solvent.
This test was repeated, this time adding 0.5 ng, 1.0 ng, 2.0 ng and 4.0 ng of SDK in 0.9% NaCl per 1 ml of culture medium. The control dishes again received the corresponding quantity of solvent. Moreover, 0.05 mCi 6-^3 H-thymidine were added to the cultures […] prior to expiration of the observation period, followed by incubation for 1 hour. The DNA of the cells was isolated as described under item (1.), and the radioactivity was measured- The results are listed in the following chart.

hepatitis B viruses = experiment: synthesis of hepatitis B viruses in transfected Hep G2 cells (HBSAG/HBEAG radioimmunoassay); format: cell-based; details: for Ratio of mean values in cpm before/after treatment, HBEAG / Ratio of mean values in cpm before/after treatment, HBSAG: six days
From the text: Hepatitis B viruses can be cultivated in Hep G2 cells. For this purpose, a recombining plasmide containing the complete virus DNA is channelled into the cells. Starting from this, the synthesizing mechanism of the cells transfected in this way will produce hepatitis B viruses (cf. Chungming Chang et al., EMBO J. 6, p. 675-680, 1987) The virus synthesis manifests itself by secreting large quantities of two surface antigens of that virus (HBSAG and HBEAG). The antigens can be detected by means of a radioimmunoassay (RIA). In this determination, an unknown quantity of antigen (HBSAG and HBEAG) competes with a known quantity of radioactively marked antigen for a limited number of antibody binding positions in a predetermined quantity of the antiserum. In the state of equilibrium, the surplus antigen exists in both the bound and the free dissolved conditions. Now, if the quantity of radioactively marked antigen is constant in a series of reactions, the proportion bound to the antibody will decrease in accordance with an increasing quantity of unmarked antigen added to the individual samples.
For practical execution of this process, a calibration curve is established first, using known quantities of marked and unmarked antigen, which will then permit determination of the unknown quantity of antigen. After incubation, the free antigen is separated from the bound antigen, and the two fractions are measured separately.
A Hep-G2 cell culture was steadily transfected with hepatitis B viruses as described by SELLS et al., Proc. Natl. Acad. Sci. USA 1987, 84, p. 1005-1009. The transfected cells were sowed in ten 4.5 cm dishes at a density of 8×10^5 cells, and in four 9 cm dishes at a density of 1.6×10^6 cells respectively. After 24 hours, fresh medium was added, containing the tripeptide SDK at concencentrations of 0.5 ng/ml, 1.0 ng/ml, 3.0 ng/ml and 5 ng/ml for each two 4.9 cm dishes, or 1.0 ng/ml for each two 9 cm dishes respectively. The tripeptide had been prediluted in completed DMEM ([…]) and sterilized by filtration. The remaining dishes served as a control, receiving the pure medium. The old medium was conserved in the supernatant for measurement of antigens, in order to exclude artifacts due to possible heterogeneities of cell density. The samples of medium for measurement of antigens were taken after six days. Measurement was effected using a standard RIA kit (HBSAG Ansria II/125, type 7802, and HBEAG Abbott Hbe (rDNA), type 1237/24, both from Abbott, Wiesbaden), according to instructions for use. The experiments were conducted with twin samples (two dishes each), since the cells from one dish were not enough.

human T-cells = details: cited from earlier work
[2] = test system: IgM secreting B-lymphocytes; details: mice; cited from earlier work
[3] = 0.5 ng of SDK per ml of medium, 4.5 cm dishes
[4] = 1.0 ng of SDK per ml of medium, 4.5 cm dishes
[5] = 1.0 ng of SDK per ml of medium, 9.0 cm dishes
[6] = 3.0 ng of SDK per ml of medium, 4.5 cm dishes
[7] = 5.0 ng of SDK per ml of medium, 4.5 cm dishes

NCCCC[C@H](NC(=O)[C@H](CC(=O)O)NC(=O)[C@@H](N)CO)C(=O)O [SDK, Ser-Asp-Lys] (H-Ser-Asp-Lys-OH)
effect on hepatocyte proliferation (hepatocytes; 1 μg injected after a certain time interval (1 h, 3, 6, 10 hrs after operation)): inhibiting effect
effect on hepatocyte proliferation (hepatocytes; 1 μg injected immediately after operation): slightly proliferation promoting effect
decrease in proliferation (hepatocytes; 1 μg injected ten hours after operation): about fifty
average number of tumor cells as % of the number found in control animals ([1]; 1 μg SDK/animal i.p. during four days): 19.1%
Ascites ([1]; 1 μg SDK/animal i.p. during four days from seventh day after ascites inoculation): 5.1 mL and 5.2 mL and 4.3 mL and 5.7 mL
quantity of ascites ([1]; 1 μg SDK/animal vs control): drastic decrease
total number of tumor cells ([1]; 1 μg SDK/animal vs control): drastic decrease
Cell number total, mean value + standard deviation ([1]; 1 μg SDK/animal, five rats): 147.7 ± 70.1 × 10^6
Inhibition of proliferation in % (Hep G2 cells; 0.5 ng of SDK per ml of medium): 19.3%
Inhibition of proliferation in % (Hep G2 cells; 1.0 ng of SDK per ml of medium): 44.9%
Inhibition of proliferation in % (Hep G2 cells; 2.0 ng of SDK per ml of medium): 34.0%
Inhibition of proliferation in % (Hep G2 cells; 4.0 ng of SDK per ml of medium): 12.4%
concentration of maximum proliferation inhibiting effect (Hep G2 cells; Hep G2, per ml of culture medium): 1 ng/mL
Ratio of mean values in cpm before/after treatment, HBEAG (hepatitis B viruses; [3]): 6.10
Ratio of mean values in cpm before/after treatment, HBSAG (hepatitis B viruses; [3]): 4.47
Ratio of mean values in cpm before/after treatment, HBEAG (hepatitis B viruses; [4]): 6.22
Ratio of mean values in cpm before/after treatment, HBSAG (hepatitis B viruses; [4]): 4.18
Ratio of mean values in cpm before/after treatment, HBEAG (hepatitis B viruses; [5]): 6.59
Ratio of mean values in cpm before/after treatment, HBSAG (hepatitis B viruses; [5]): 3.89
Ratio of mean values in cpm before/after treatment, HBEAG (hepatitis B viruses; [6]): 7.31
Ratio of mean values in cpm before/after treatment, HBSAG (hepatitis B viruses; [6]): 4.57
Ratio of mean values in cpm before/after treatment, HBEAG (hepatitis B viruses; [7]): 8.00
Ratio of mean values in cpm before/after treatment, HBSAG (hepatitis B viruses; [7]): 4.18
concentration of antigens, and hence the virus synthesis (hepatitis B viruses; transfected Hep G2 cells, SDK vs untreated): significantly reduced
rosette formation due to interaction of human T-cells and sheep erythrocytes (human T-cells): inhibits rosette formation
immunomodulating effect: humoral response (generation of IgM secreting B-lymphocytes) to red blood cells of sheep [2]: stimulation of the humoral response
